# Source: patent US6348190B1, “Pharmaceutical compositions with antimicrobial activity” (Richter Gedeon Vegyeszeti Gyar Rt., priority 1996, dated 2002)
# Key:
# the bacteria tested = test: Seventh series: sterility examination after termination of the 72 hours trial; assay type: cell-based; details: sterility examination after the 72 hours trial
# From the text: It can be observed that a nearly immediate effect occurs after inoculation.
# Salmonella sp = test: Second series: number of germs against prolonged time in 0.1% solutions; assay type: cell-based; details: 0.1% solution; for number of test organisms: Salmonella sp
# Description: (§1) Zinc and sodium hyaluronate solutions of […] (obtained by diluting solutions of 0.5% prepared according to Examples 1 and 2) were artificially infected by the identical germ count of various test organisms and the changing of the number of germs was taken against time. The number of germs was determined in a point of time by plating method. The evaluation was visually carried out at moulds and by using an automated colony counter at bacteria and fungi.
# (§2) The effects of 0.1% zinc hyaluronate and sodium hyaluronate solutions, respectively on three distinguished test organisms are illustrated in Table 3.
# Staphylococcus aureus = test: as above; assay type: cell-based; details: 0.1% solution; for number of test organisms: Staphylococcus aureus
# Description: as §1, §2
# Pseudomonas aeruginosa [1] = test: as above; assay type: cell-based; details: 0.1% solution
# Description: as §1, §2
# Pseudomonas aeruginosa [2] = test: Third series: effect of solutions of various concentrations on Pseudomonas aeruginosa; assay type: cell-based
# Description: as §1
# Due to the ophthalmological importance of Pseudomonas aeruginosa, the effects of zinc hyaluronate solutions of various concentrations on Pseudomonas aeruginosa were studied in comparison to sodium hyaluronate solutions of the same concentrations.
# Staphylococcus areus = test: Fifth series: MIC and CID by serial dilution; assay type: cell-based, Staphylococcus aureus; details: serial dilution from 0.2% solution
# Description: (§3) The antibacterial effect of zinc hyaluronate associate can be characterized by the following values of the minimum inhibitory concentration (MIC) and microbicidal concentration (CID) in comparison to the corresponding values of sodium hyaluronate.
# (§4) MIC and CID values were determined by using solutions of 0.2% concentration. The determinations were conducted in a known way: a serial dilution was prepared from the substances to be tested and these solutions were artificially infected by the corresponding dilutions of the selected test organisms. After incubation at a suitable temperature for an appropriate time, the concentration series was visually evaluated and the minimum concentration was determined, which inhibited the growth of microorganisms (MIC value), or induced the death of the microorganisms (CID value).
# Escherichia coli = test: Fifth series: MIC and CID by serial dilution; assay type: cell-based; details: serial dilution from 0.2% solution
# Description: as §3, §4
# Salmonella = test: Fifth series: MIC and CID by serial dilution; assay type: cell-based; details: serial dilution from 0.2% solution
# Description: as §3, §4
# Streptococcus sp = test: Fifth series: MIC and CID by serial dilution; assay type: cell-based; details: serial dilution from 0.2% solution
# Description: as §3, §4
# [3] = tested on: Helicobacter pylori strain 822/96; test: Eighth series: MIC on Helicobacter pylori, agar with 10% bovine blood; assay type: cell-based
# Description: These investigations were carried out by using 1.0 weight/vol. % zinc hyaluronate solution on Helicobacter pylori strains cultivated from the gastric is biopsy samples of patients suffering from various ulcers. An 1% solution of De-Nol (colloidal bismuth subcitrate) was used as reference substance. Agar culture medium (nutrient medium) supplemented with 10% of bovine blood was used for the investigations. Plates without compound to be tested were used as controls. The inoculated plates were incubated for 3 to 5 days at 37° C. in a gaseous environment containing 5% of oxygen and 7 to 8% of carbon dioxide. The value of minimum inhibitory concentration (MIC) was considered to be the minimum concentration of substances totally inhibiting the propagation of bacteria well-growing on the control plates.
substance,measurement,setting,value
cobalt(II) hyaluronate [cobalt hyaluronate],character of the effect (static or bactericidal),the bacteria tested,bactericidal effect
sodium hyaluronate [reference compound],number of test organisms,Salmonella sp; 0 hr,8.0 × 10^6 Test-organism/ml
same,number of test organisms,Salmonella sp; 24 hrs,8.1 × 10^6 Test-organism/ml
same,number of test organisms,Salmonella sp; 48 hrs,1.2 × 10^6 Test-organism/ml
same,number of test organisms,Salmonella sp; 72 hrs,1.8 × 10^6 Test-organism/ml
same,course of the count over the test time (in words),Salmonella sp; Salmonella,remained practically within the same order
same,number of test organisms,Staphylococcus aureus; 0 hr,1.3 × 10^6 Test-organism/ml
same,number of test organisms,Staphylococcus aureus; 24 hrs,4.1 × 10^6 Test-organism/ml
same,number of test organisms,Staphylococcus aureus; 48 hrs,6.2 × 10^6 Test-organism/ml
same,number of test organisms,Staphylococcus aureus; 72 hrs,8.4 × 10^6 Test-organism/ml
same,course of the count over the test time (in words),Staphylococcus aureus; Staphylococcus,remained practically within the same order
zinc hyaluronate,onset of effect (in words),Pseudomonas aeruginosa [1],significant decrease appeared only from the second day
same,number of test organisms,Pseudomonas aeruginosa [1]; 0 hr,2.1 × 10^5 Test-organism/ml
same,number of test organisms,Pseudomonas aeruginosa [1]; 24 hrs,2.4 × 10^4 Test-organism/ml
same,number of test organisms,Pseudomonas aeruginosa [1]; 48 hrs,3.0 × 10^3 Test-organism/ml
same,number of test organisms,Pseudomonas aeruginosa [1]; 72 hrs,<100 Test-organism/ml
same,number of test organisms,Pseudomonas aeruginosa [1]; 96 hrs,<100 Test-organism/ml
same,number of test organisms,Pseudomonas aeruginosa [1]; 168 hrs,0 Test-organism/ml
same,number of test organisms,Salmonella sp; 0 hr,2.0 × 10^6 Test-organism/ml
same,number of test organisms,Salmonella sp; 24 hrs,1.1 × 10^6 Test-organism/ml
same,number of test organisms,Salmonella sp; 48 hrs,0 Test-organism/ml
same,number of test organisms,Salmonella sp; 72 hrs,0 Test-organism/ml
same,number of test organisms,Salmonella sp; 96 hrs,0 Test-organism/ml
same,number of test organisms,Salmonella sp; 168 hrs,0 Test-organism/ml
same,time until count reduced to zero,Salmonella sp; Salmonella,≤ 48 h
same,number of test organisms,Staphylococcus aureus; 0 hr,4.2 × 10^6 Test-organism/ml
same,number of test organisms,Staphylococcus aureus; 24 hrs,4.6 × 10^6 Test-organism/ml
same,number of test organisms,Staphylococcus aureus; 48 hrs,0 Test-organism/ml
same,number of test organisms,Staphylococcus aureus; 72 hrs,0 Test-organism/ml
same,number of test organisms,Staphylococcus aureus; 96 hrs,0 Test-organism/ml
same,number of test organisms,Staphylococcus aureus; 168 hrs,0 Test-organism/ml
same,time until count reduced to zero,Staphylococcus aureus; Staphylococcus,≤ 48 h
same,number of test organisms,"Pseudomonas aeruginosa [2]; 0.1% solution, 0 hr",5.5 × 10^5 Test-organism /ml
same,number of test organisms,"Pseudomonas aeruginosa [2]; 0.1% solution, 24 hrs",5.0 × 10^5 Test-organism /ml
same,number of test organisms,"Pseudomonas aeruginosa [2]; 0.1% solution, 48 hrs",2.0 × 10^3 Test-organism /ml
same,number of test organisms,"Pseudomonas aeruginosa [2]; 0.1% solution, 72 hrs",<100 Test-organism /ml
same,number of test organisms,"Pseudomonas aeruginosa [2]; 0.2% solution, 0 hr",8.0 × 10^5 Test-organism /ml
same,number of test organisms,"Pseudomonas aeruginosa [2]; 0.2% solution, 24 hrs",5.5 × 10^5 Test-organism /ml
same,number of test organisms,"Pseudomonas aeruginosa [2]; 0.2% solution, 48 hrs",3.0 × 10^3 Test-organism /ml
same,number of test organisms,"Pseudomonas aeruginosa [2]; 0.2% solution, 72 hrs",<100 Test-organism /ml
same,number of test organisms,"Pseudomonas aeruginosa [2]; 0.5% solution, 0 hr",1.0 × 10^6 Test-organism /ml
same,number of test organisms,"Pseudomonas aeruginosa [2]; 0.5% solution, 24 hrs",6.0 × 10^5 Test-organism /ml
same,number of test organisms,"Pseudomonas aeruginosa [2]; 0.5% solution, 48 hrs",3.0 × 10^3 Test-organism /ml
same,number of test organisms,"Pseudomonas aeruginosa [2]; 0.5% solution, 72 hrs",<100 Test-organism /ml
same,activity compared (in words),Pseudomonas aeruginosa [2]; Tables 4 and 5,obviously more effective than sodium hyaluronate solutions
same,CID (microbicidal concentration),Staphylococcus areus,120 µg/mL
same,MIC (minimum inhibitory concentration),Staphylococcus areus,40 µg/mL
same,CID (microbicidal concentration),Escherichia coli,310 µg/mL
same,MIC (minimum inhibitory concentration),Escherichia coli,26 µg/mL
same,CID (microbicidal concentration),Salmonella,160 µg/mL
same,MIC (minimum inhibitory concentration),Salmonella,5.4 µg/mL
same,CID (microbicidal concentration),Streptococcus sp,400 µg/mL
same,MIC (minimum inhibitory concentration),Streptococcus sp,96 µg/mL
same,in vitro activity compared (in words),[3]; Helicobacter pylori,comparable to the activity of De-Nol
same,MIC,"[3]; Helicobacter pylori strain 822/96, 3 to 5 days at 37° C., 5% oxygen, 7 to 8% carbon dioxide",500 µg/mL
